Results: the NIST ThermoML archive (doi:10.1016/j.jct.2016.01.006)
Where “and” joins values, the source holds several entries; their conditions need not be identical. Equal entries are not always repeated.

Settings: Crystal, Calculated from knudsen effusion weight loss

CCOC(=O)c1cc2ccccc2[nH]1 [ethyl 1H-indole-2-carboxylate]
Settings | vapor or sublimation pressure
326.18 K | 7.9e-05 kPa and 7.4e-05 kPa
328.21 K | 0.000101 kPa and 9.8e-05 kPa and 9.1e-05 kPa
330.12 K | 0.000123 kPa and 0.000122 kPa and 0.000126 kPa
332.18 K | 0.000155 kPa and 0.000154 kPa and 0.000157 kPa
334.22 K | 0.000202 kPa and 0.000196 kPa and 0.000203 kPa
336.12 K | 0.000256 kPa and 0.000249 kPa and 0.000248 kPa
338.18 K | 0.000312 kPa and 0.000322 kPa
340.21 K | 0.000399 kPa and 0.000394 kPa and 0.00041 kPa
342.12 K | 0.000501 kPa and 0.000503 kPa and 0.000504 kPa
344.16 K | 0.000627 kPa and 0.000614 kPa and 0.000659 kPa
346.18 K | 0.000808 kPa and 0.000835 kPa and 0.000768 kPa
348.11 K | 0.000988 kPa and 0.000995 kPa and 0.000981 kPa

COC(=O)c1c[nH]c2ccccc12 [methyl 1H-indole-3-carboxylate]
Settings | vapor or sublimation pressure
353.17 K | 0.000108 kPa and 9.8e-05 kPa and 9.7e-05 kPa
355.12 K | 0.00013 kPa and 0.000127 kPa and 0.000122 kPa
357.1 K | 0.000154 kPa and 0.000153 kPa and 0.000148 kPa
359.16 K | 0.000179 kPa and 0.000181 kPa and 0.000189 kPa
361.11 K | 0.000232 kPa and 0.000226 kPa and 0.000234 kPa
363.1 K | 0.000283 kPa and 0.000285 kPa and 0.000284 kPa
365.16 K | 0.000351 kPa and 0.000347 kPa and 0.000371 kPa
367.12 K | 0.000439 kPa and 0.000427 kPa and 0.000452 kPa
369.1 K | 0.000528 kPa and 0.000531 kPa and 0.000514 kPa
371.16 K | 0.000637 kPa and 0.000644 kPa and 0.000707 kPa
373.09 K | 0.000799 kPa and 0.000822 kPa and 0.000792 kPa
375.09 K | 0.00096 kPa and 0.000992 kPa and 0.000977 kPa
